Data published in ChEMBL document CHEMBL1127664, “Second-generation benzodiazepine CCK-B antagonists. Development of subnanomolar analogs with selectivity and water solubility” (J Med Chem, 1994).
Converted amounts (≈) assume the structure as drawn.

Key:
[1] = target: T1, Cholecystokinin receptor type A (Rattus norvegicus, UniProt P30551); experiment: The compound was tested for binding activity against Cholecystokinin type A receptor from rat pancreas using [125]BH CCK-8s as radioligand.
T1 sequence (P30551 whole entry): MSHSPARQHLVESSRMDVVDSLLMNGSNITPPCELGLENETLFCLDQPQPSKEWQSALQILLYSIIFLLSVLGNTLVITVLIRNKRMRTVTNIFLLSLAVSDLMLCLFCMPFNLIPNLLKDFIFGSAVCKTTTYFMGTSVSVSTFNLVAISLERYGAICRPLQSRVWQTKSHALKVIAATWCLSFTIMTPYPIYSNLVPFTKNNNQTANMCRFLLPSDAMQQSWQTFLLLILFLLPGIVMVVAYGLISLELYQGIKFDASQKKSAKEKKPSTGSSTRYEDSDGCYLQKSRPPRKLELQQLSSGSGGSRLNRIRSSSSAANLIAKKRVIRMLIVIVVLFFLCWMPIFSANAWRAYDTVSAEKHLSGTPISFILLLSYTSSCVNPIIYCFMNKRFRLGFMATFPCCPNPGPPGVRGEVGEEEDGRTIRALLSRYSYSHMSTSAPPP

[2] = Equilibrium solubility determined after stirring the compound in buffered solution for more than 5 hours at pH 7.4; assay type: ADME
[3] = Equilibrium solubility determined after stirring the compound in buffered solution for more than 5 hours at pH 7; assay type: ADME
[4] = Equilibrium solubility determined after stirring the compound in buffered solution for more than 5 hours at pH 8.00; assay type: ADME
[5] = target: T1, Cholecystokinin receptor type A; experiment: The compound was tested for binding activity against Cholecystokinin type A receptor from rat pancreatic tissue using [125]BH CCK-A as radioligand
[6] = Equilibrium solubility determined after stirring the compound in buffered solution for more than 5 hours at pH 8.0; assay type: ADME

Cc1ccc(NC(=O)N[C@H]2N=C(c3ccccc3)c3ccccc3N(C)C2=O)cc1
IC50 [1]: 736 nM | solubility thermodynamic at 5 h [2]: > 2 µg/mL

CN1C(=O)[C@H](NC(=O)Nc2ccc(-c3nc(=O)o[nH]3)cc2)N=C(c2ccccc2)c2ccccc21
IC50 [1]: 15.4 nM

CC(C)CN1C(=O)[C@@H](NC(=O)Nc2ccc(-c3nn[nH]n3)cc2)N=C(c2ccccc2)c2ccccc21
solubility thermodynamic at 5 h [3]: 1400 µg/mL (≈ 2.83 mM) | solubility thermodynamic at 5 h [4]: > 11000 µg/mL | IC50 [5]: 1430 nM

CN1C(=O)[C@@H](NC(=O)Nc2ccc(-c3nnn[nH]3)cc2)N=C(c2ccccc2)c2ccccc21
IC50 [5]: 577 nM | solubility thermodynamic at 5 h [2]: 3740 µg/mL (≈ 8.27 mM)

CN1C(=O)[C@@H](NC(=O)Nc2ccc(-c3noc(O)n3)cc2)N=C(c2ccccc2)c2ccccc21
solubility thermodynamic at 5 h [6]: 1660 µg/mL (≈ 3.54 mM) | IC50 [1]: 983 nM | solubility thermodynamic at 5 h [2]: 410 µg/mL (≈ 0.875 mM)

CC(C)CN1C(=O)[C@H](NC(=O)Nc2ccc(-c3nnn[nH]3)cc2)N=C(c2ccccc2)c2ccccc21
IC50 [1]: 379 nM

CN1C(=O)[C@H](NC(=O)Nc2ccc(-c3nn[nH]n3)cc2)N=C(c2ccccc2)c2ccccc21
IC50 [1]: 6.16 nM

CN1C(=O)C(NC(=O)Nc2ccc(C(=O)O)cc2)N=C(c2ccccc2)c2ccccc21 (single isomer, unassigned)
IC50 [1]: 1550 nM | solubility thermodynamic at 5 h [2]: 4700 µg/mL (≈ 11 mM)
